From the CheMixHub ionic liquid set
± gives the uncertainty stated by the source.

Assay: xn = mol fraction of the nth substance listed

CCCCCCCCn1cc[n+](CCCCCCCC)c1.O=S(=O)([N-]S(=O)(=O)C(F)(F)F)C(F)(F)F + O
100 kPa, x2 = 0.1246
Details | viscosity [mPa·s]
303.15 K | 92.9 ± 1.1
308.15 K | 73.29 ± 0.71
358.15 K | 13.27 ± 0.12

CC(=O)[O-].CCCC[NH2+]CCO + CCCC[n+]1ccn(C)c1.O=S(=O)([N-]S(=O)(=O)C(F)(F)F)C(F)(F)F
101 kPa
Details | viscosity [mPa·s]
283.15 K, x1 = 0.1012 | 127.4 ± 1.9
283.15 K, x1 = 0.6987 | 1145 ± 52
283.15 K, x1 = 0.8008 | 1850 ± 96
283.15 K, x1 = 1 | 3634 ± 220
288.15 K, x1 = 0.3002 | 164.2 ± 3.2
288.15 K, x1 = 0.8008 | 1170 ± 54
288.15 K, x1 = 0.901 | 1735 ± 89
298.15 K, x1 = 0.2257 | 78.02 ± 0.98
298.15 K, x1 = 0.8008 | 515 ± 19
298.15 K, x1 = 0.901 | 731 ± 30
298.15 K, x1 = 1 | 921 ± 41
303.15 K, x1 = 0.4998 | 126.1 ± 2.5
303.15 K, x1 = 0.8008 | 356 ± 11
308.15 K, x1 = 0.3002 | 56.19 ± 0.7
308.15 K, x1 = 1 | 423 ± 15
313.15 K, x1 = 0.4998 | 73.4 ± 1.2
313.15 K, x1 = 0.6987 | 130.9 ± 2.8
313.15 K, x1 = 0.8008 | 182 ± 4.5
313.15 K, x1 = 0.901 | 243.8 ± 6.9
313.15 K, x1 = 1 | 297 ± 9.3
318.15 K, x1 = 0.2257 | 32.2 ± 0.37
318.15 K, x1 = 0.6987 | 98.5 ± 1.9
318.15 K, x1 = 0.901 | 176.6 ± 4.5
323.15 K, x1 = 0.6987 | 75.5 ± 1.4
328.15 K, x1 = 0.2257 | 22.42 ± 0.26
328.15 K, x1 = 0.6018 | 46.47 ± 0.77
328.15 K, x1 = 0.901 | 98 ± 2.1
338.15 K, x1 = 0.6987 | 37.11 ± 0.65
343.15 K, x1 = 0.2257 | 14.05 ± 0.16
343.15 K, x1 = 0.4998 | 20.65 ± 0.31
343.15 K, x1 = 0.901 | 45.6 ± 0.92
343.15 K, x1 = 1 | 51.9 ± 1.1
348.15 K, x1 = 0.423 | 15.42 ± 0.21
353.15 K, x1 = 0.901 | 29.26 ± 0.59
353.15 K, x1 = 1 | 32.6 ± 0.7
358.15 K, x1 = 0.3002 | 9.99 ± 0.12
358.15 K, x1 = 0.423 | 11.46 ± 0.16
358.15 K, x1 = 0.4998 | 12.68 ± 0.19
363.15 K, x1 = 0.423 | 9.98 ± 0.14
363.15 K, x1 = 1 | 21.43 ± 0.46
368.15 K, x1 = 0.8008 | 14.29 ± 0.27
368.15 K, x1 = 1 | 17.63 ± 0.38
373.15 K, x1 = 0.3002 | 6.99 ± 0.09
373.15 K, x1 = 0.423 | 7.73 ± 0.11
373.15 K, x1 = 0.4998 | 8.35 ± 0.12
373.15 K, x1 = 1 | 14.64 ± 0.31

C[NH2+]CCC=C1c2ccccc2CCc2ccccc21.[Cl-] + CCCC[n+]1ccn(C)c1.[Br-] + O
viscosity [mPa·s], 100 kPa
Details | 288.15 K | 298.15 K | 308.15 K | 318.15 K
x1 = 0.0001975, x2 = 0.0001801 | 1.159 ± 0.044 | 0.927 ± 0.043 | 0.763 ± 0.043 | 0.646 ± 0.042
x1 = 0.0002159, x2 = 0.00126 | 1.172 ± 0.044 | 0.944 ± 0.043 | 0.778 ± 0.043 | 0.661 ± 0.043
x1 = 0.0002212, x2 = 0.0007201 | 1.165 ± 0.044 | 0.934 ± 0.043 | 0.77 ± 0.043 | 0.654 ± 0.043
x1 = 0.0005439, x2 = 0.0001801 | 1.169 ± 0.044 | 0.936 ± 0.043 | 0.771 ± 0.043 | 0.655 ± 0.043
x1 = 0.0005594, x2 = 0.001259 | 1.182 ± 0.044 | 0.953 ± 0.043 | 0.787 ± 0.043 | 0.671 ± 0.043
x1 = 0.0005644, x2 = 0.0007199 | 1.176 ± 0.044 | 0.943 ± 0.043 | 0.779 ± 0.043 | 0.664 ± 0.043
x1 = 0.0009069, x2 = 0.0007196 | 1.187 ± 0.044 | 0.952 ± 0.043 | 0.788 ± 0.043 | 0.674 ± 0.043
x1 = 0.0009097, x2 = 0.00018 | 1.18 ± 0.044 | 0.946 ± 0.043 | 0.78 ± 0.043 | 0.664 ± 0.043
x1 = 0.0009344, x2 = 0.001259 | 1.193 ± 0.044 | 0.963 ± 0.043 | 0.796 ± 0.043 | 0.68 ± 0.043
x1 = 0.001275, x2 = 0.001258 | 1.204 ± 0.044 | 0.973 ± 0.043 | 0.805 ± 0.043 | 0.689 ± 0.043
x1 = 0.001278, x2 = 0.0001799 | 1.192 ± 0.044 | 0.956 ± 0.043 | 0.789 ± 0.043 | 0.673 ± 0.043
x1 = 0.001293, x2 = 0.0007194 | 1.199 ± 0.044 | 0.961 ± 0.043 | 0.797 ± 0.043 | 0.682 ± 0.043
x1 = 0.001648, x2 = 0.0007191 | 1.211 ± 0.044 | 0.971 ± 0.043 | 0.806 ± 0.043 | 0.691 ± 0.043
x1 = 0.001659, x2 = 0.0001799 | 1.204 ± 0.044 | 0.967 ± 0.043 | 0.798 ± 0.043 | 0.681 ± 0.043
x1 = 0.001665, x2 = 0.001258 | 1.216 ± 0.044 | 0.984 ± 0.043 | 0.814 ± 0.043 | 0.698 ± 0.043
x1 = 0.002, x2 = 0.0001798 | 1.217 ± 0.044 | 0.978 ± 0.043 | 0.807 ± 0.043 | 0.689 ± 0.043
x1 = 0.002031, x2 = 0.0007188 | 1.224 ± 0.044 | 0.982 ± 0.043 | 0.815 ± 0.043 | 0.699 ± 0.043
x1 = 0.002035, x2 = 0.001257 | 1.229 ± 0.044 | 0.995 ± 0.043 | 0.823 ± 0.043 | 0.707 ± 0.043
x1 = 0.002363, x2 = 0.0001797 | 1.23 ± 0.044 | 0.989 ± 0.043 | 0.816 ± 0.043 | 0.697 ± 0.043
x1 = 0.002378, x2 = 0.001257 | 1.243 ± 0.044 | 1.006 ± 0.043 | 0.832 ± 0.043 | 0.715 ± 0.043
x1 = 0.002383, x2 = 0.0007186 | 1.237 ± 0.044 | 0.993 ± 0.043 | 0.824 ± 0.043 | 0.707 ± 0.043
x1 = 0.002737, x2 = 0.0001797 | 1.244 ± 0.044 | 1 ± 0.043 | 0.826 ± 0.043 | 0.705 ± 0.043
x1 = 0.00275, x2 = 0.001256 | 1.257 ± 0.044 | 1.018 ± 0.043 | 0.842 ± 0.043 | 0.723 ± 0.043
x1 = 0.002759, x2 = 0.0007183 | 1.251 ± 0.044 | 1.005 ± 0.043 | 0.834 ± 0.043 | 0.715 ± 0.043
x1 = 0.003096, x2 = 0.001256 | 1.272 ± 0.044 | 1.03 ± 0.043 | 0.853 ± 0.043 | 0.731 ± 0.043
x1 = 0.003103, x2 = 0.0001796 | 1.258 ± 0.044 | 1.012 ± 0.043 | 0.836 ± 0.043 | 0.713 ± 0.043
x1 = 0.00311, x2 = 0.000718 | 1.265 ± 0.044 | 1.019 ± 0.043 | 0.845 ± 0.043 | 0.723 ± 0.043
x1 = 0.003471, x2 = 0.0001795 | 1.273 ± 0.044 | 1.024 ± 0.043 | 0.847 ± 0.043 | 0.721 ± 0.043
x1 = 0.003493, x2 = 0.001255 | 1.287 ± 0.044 | 1.043 ± 0.043 | 0.864 ± 0.043 | 0.738 ± 0.043
x1 = 0.003504, x2 = 0.0007178 | 1.28 ± 0.044 | 1.033 ± 0.043 | 0.856 ± 0.043 | 0.731 ± 0.043
